In US8236510B2, “Protein showing enhanced expression in cancer cells” (Agensys, Inc., priority 1999, dated 2012):

What was measured:
[1] = test system: ERK phosphorylation in PC3-101P3A11 cells; assay: ERK phosphorylation in PC3-101P3A11 and PC3-neo cells (anti-Phospho-ERK Western blot); format: cell-based, human; conditions: PC3-101P3A11 cells
Protocol: Using Western blotting and other techniques, the ability of 101P3A11 to regulate these pathways is confirmed. Cells expressing or lacking 101P3A11 are either left untreated or stimulated with cytokines, androgen and anti-integrin antibodies. Cell lysates were analyzed using anti-phospho-specific antibodies (Cell Signaling, Santa Cruz Biotechnology) in order to detect phosphorylation and regulation of ERK, p38, AKT, PI3K, PLC and other signaling molecules. […] In the experiment, data shown in FIG. 26, control 3T3-neo and 3T3-101P3A11 cells were either treated with 0.5 or 10% FBS and whole cell lysates were analyzed by anti-phosphotyrosine Western blotting.
In this experiment, control PC3-neo cells and PC3-101P3A11 cells were left untreated (0.1% FBS) or were stimulated with 10% FBS, lipophosphatidic acid (LPA), gastrin releasing peptide (GRP), leukotriene (LKB4) or platelet activating factor (PAF). The cells were lysed and analyzed by Western blotting using anti-Phospho-ERK (FIG. 27A) or anti-ERK (FIG. 27B) mAb. […] In order to delineate the signaling pathway by which 101P3A11 mediates ERK phosphorylation in cancer cells, it was confirmed which of the two pathway inhibitors: MEK inhibitor PD98059 or the p38 inhibitor SB203580 regulate 101P3A11 mediated ERK phosphorylation (FIG. 28). […] Cells were lysed and analyzed by Western blotting using anti-Phospho-ERK or anti-ERK mAb. Treatment with 10% FBS or with GRP induced the phosphorylation of ERK in PC3-101P3A11 but not in control PC3-neo cells. 101P3A11-mediated ERK phosphorylation was inhibited by the MEK-1 inhibitor PD98059 but not the p38 inhibitor SB203580 or genistein.
Results in FIGS. 26-28 indicate that 101P3A11 regulates the activity of kinases, including ERK, and phosphatases. In order to confirm the association of 101P3A11 with phosphatase activity, the effect of the protein phosphatase inhibitor sodium orthovanadate on 101P3A11 mediated ERK phosphorylation was determined (FIG. 29). PC3-neo and PC3-101P3A11 cells were grown in media alone or in the presence of sodium orthovanadate (Na3VO4), and were stimulated with 0.1% or 10% FBS. Cells were lysed and analyzed by Western blotting using anti-Phospho-ERK or anti-ERK mAb. […] Results in FIG. 29 confirm the contribution of protein phosphatases to 101P3A11 mediated signaling.
In order to determine whether 101P3A11 signaling results in the activation of EGFR, we compared the effect of the EGFR inhibitor, AG1517, on EGFR- and 101P3A11-mediated ERK phosphorylation (FIG. 30). In FIG. 30, PC3-neo and PC3-101P3A11 cells were grown in media alone (0.1% FBS) or in the presence of AG1517. The cells were stimulated with 0.1% or 10% FBS, GRP or EGF, lysed and analyzed by Western blotting using anti-Phospho-ERK or anti-ERK mAb. Treatment with 10% FBS, GRP and EGF induced ERK phosphorylation in PC3-101P3A11 cells. […] Data in FIG. 30 indicate that some cross talk occurred between 101P3A11 and EGFR signaling pathways.
(§1) Since adenylate cyclase activity modulates intracellular levels of cAMP and induce downstream signaling events such as activation of protein kinase A, calcium and ERK MAPK signaling (Pierce K. L., et al, Oncogene. 2001, 20: 1532), we determined that PTX, an inhibitor of adenylate cyclase signaling, prevents 101P3A11-mediated ERK phosphorylation along with inhibiting cAMP accumulation (FIG. 33 and FIG. 34). PC3-neo and PC3-101P3A11 cells were grown overnight in 0.1% FBS in media alone or in the presence of pertussis toxin (PTX). Cells were stimulated with 0.1% or 10% FBS (FIG. 33) or 10% FBS, EGF or GRP (FIG. 34). Cells were lysed and analyzed by Western blotting using anti-Phospho-ERK mAb. Expression of 101P3A11 mediated ERK phosphorylation by 10% FBS in PC3 cells, which was inhibited by PTX (FIG. 33 and FIG. 34).
GPCR transmit their signal by activating trimeric G proteins. […]

PC3-101P3A11 cells = assay: Proliferation of PC3-101P3A11 and PC3-neo cells; format: cell-based, human; conditions: PC3-101P3A11 cells, dose dependent
Protocol: as §1
GPCR transmit their signal by activating trimeric G proteins. Once GPCRs are activated, the associated Ga subunit binds GTP, dissociates from the receptor and participates in downstream signaling events (Schild, D., and Restrepo, D. Physiol Rev. 1998, 78:429-66). In order to determine that inhibition of Ga subunits has an effect on 101P3A11 mediated cell growth, the effect of two Ga inhibitors on the proliferation of 3T3-101P3A11 cells was investigated. Control 3T3 and 3T3-101P3A11 cells were grown in the presence or absence of suramin or its derivative NF 449 (Sigma). Cells were analyzed for proliferation 72 hours later (FIG. 35). The experiment was performed in triplicate. […] This response was 101P3A11 specific as suramin and NF449 had no effect on the proliferation of control 3T3 cells. Similarly, inhibition of G protein activation by suramin and NF449 in PC3 cells inhibits the proliferation of PC3-101P3A11 cells grown in 5% FBS (Figure M4). […] This ERK phosohorylation and activation was inhibited by suramin and NF449 in PC3-101P3A11 and 3T3-101P3A11 cells. ERK phosphorylation was inhibited in a dose dependent manner in PC3-101P3A11 cells treated with suramin. […]

## pertussis toxin [PTX]
[1]; 10% FBS
  inhibition of FBS-mediated ERK phosphorylation: inhibited
[1]; GRP or EGF
  effect on GRP and EGF-mediated ERK phosphorylation: relatively unaffected
PC3-101P3A11 cells
  inhibition of proliferation: inhibited
